Counter-ions that a name gives are not always drawn. Like-named read-outs stand apart in the source and are kept apart here.
How the values were obtained:
[1] = system: urgency incontinence; test: Example 4: clinical case studies, urgency incontinence / urinary frequency, urgency and nocturia; format: in vivo, human; conditions: person
Method: A person developed urgency incontinence two years after their laparoscopically assisted vaginal hysterectomy. […] However they experienced side effects, such as dry mouth, from the drug. Two weeks later, they started applying oxybutynin (5 mg) into the vagina at bed time, instead of Ditropan XL. […] The patient used vaginal oxybutynin (5 mg) at bed time for 6 months.
A person with a history of chronic pelvic pain and multiple surgical procedures, including pain mapping under conscious sedation and repair of occult bilateral inguinal hernias, developed urinary frequency, urgency and nocturia. Their urine analysis and urine culture were negative for signs of urinary tract infection. Their treatment began with vaginal oxybutynin (5 mg) once daily, at bed time, applied into the vagina.

[2] = system: bladder; test: Example 1: bladder pressure response to intra-arterial Ach after vaginal oxybutynin gel; format: in vivo, rabbit; conditions: for response of the bladder pressure to Ach: high dose (0.5 g Oxybutynin/g gel, 3 g vaginal)
Excerpt: (§1) 16 mature female New Zealand white rabbits were separated into two groups of eight. The rabbits in Group 1 received a high dose oxybutynin formulations; and the rabbits in Group 2 received a low dose oxybutynin formulation. For the high dose, 3 grams (g) of oxybutynin HCl were suspended in 6 g of gel (yielding a concentration of 0.5 g Oxybutynin/g gel) and 3 g of the formulation were placed in the vagina. For the low dose, 0.3 g of oxybutynin HCl were suspended in 6 g of gel (yielding a concentration of 0.05 g Oxybutynin/g gel), and 3 g of the formulation were placed in the vagina.
(§2) Each rabbit was sedated with an intramuscular injection of ketamine-xylazine ((25 mg ketamine+6 mg xylazine)/kg rabbit) and anesthesia was maintained by isoflurane. After anesthesia, the right external carotid artery was cannulated for blood pressure monitoring. A polyethylene catheter (Intramedic) with an outer diameter of 0.043 inches was inserted through the rabbit's right femoral artery until it reached the lower abdominal aorta (approximately 0.5 cm above the bifurcation of the aorta). A heparizined saline (30 iu/mL) filled polyethylene catheter was used for intra-arterial administration of drugs. To facilitate the delivery of the maximum amount of drugs to the urinary bladder, the rabbit's left femoral artery was ligated.
(§3) The bladder was exposed through a midline incision, and the bladder dome was catheterized with an 8 F catheter for both the monitoring of bladder pressure and for cystometry. The bladder neck-urethra was ligated to prevent micturition or leakage through the urethra. The catheter was connected to an infusion pump (Harvard Apparatus) and a pressure transducer.
(§4) Acetylcholine (Ach), a chemical that causes the bladder muscle (detrusor) to squeeze or contract, was injected through the intra-arterial polyethylene catheter in a volume of 0.31-0.39 mL (i.e., 0.1 mL/kg of rabbit), followed by 0.2 mL of heparinized saline. Change of intravesical pressure following the administration of Ach (10^−6 mol/kg) was monitored by the pressure transducer and recorded on a Grass model 7D polygraph. A 10-minute interval passed between Ach administrations, and three flushes of normal saline, in an amount of 0.1 ml/kg of rabbit, were administered. Three responses to Ach were performed at 10-minute intervals to ensure consistent responses.
(§5) After the third Ach administration, the application of the oxybutynin containing gel was administered to the vagina and the responses to Ach were determined at 15-minute intervals for 2 hours. When the response to Ach was reduced, then the time period was extended to 4 hours. At the end of the experiment, a second cystometric curve was generated.

[3] = system: blood pressure; test: Example 1: blood pressure response to intra-arterial Ach after vaginal oxybutynin gel; format: in vivo, rabbit
Excerpt: as §1, §2, §4, §5

[4] = system: bladder; test: Example 1: cystometry (bladder capacity, Bladder Compliance); format: in vivo, rabbit; conditions: high dose (0.5 g/g gel) vaginal
Excerpt: as §1, §3
Then, the rabbit was taken off of the isoflurane and anesthesia was maintained by ketamine-xylazine so that micturition reflexes could be observed during cystometry. […] Bladder capacity and Bladder Compliance were determined. […]
(§6) After the third Ach administration, the application of the oxybutynin containing gel was administered to the vagina and the responses to Ach were determined at 15-minute intervals for 2 hours. […]

[5] = system: bladder; test: Example 2: cystometry at 1.42 mL/minute after vaginal oxybutynin; format: in vivo, rabbit
Excerpt: as §1, §3
Then, the rabbit was taken off of the isoflurane and anesthesia was maintained by ketamine-xylazine so that micturition reflexes could be observed during cystometry. After 15 minutes, the infusion pump was turned on and at an infusion rate of 1.0 mL/minute, a cystometric curve was generated. The volume at which a micturition reflex was observed was considered to be the functional capacity of the bladder. Bladder capacity and Bladder Compliance were determined. The bladder was then filled to 20 mL.
as §5
(§7) The protocol described in Example 1 was followed in this experiment, with the following changes. The infusion pump was turned on and, at an infusion rate of 1.42 mL/minute, a cystometric curve was generated.

[6] = system: bladder; test: Example 2: bladder contractile response to intra-arterial Ach; format: in vivo, rabbit
Excerpt: as §1, §4, §5, §7

[7] = system: blood pressure; test: Example 2: vascular response to Ach; format: in vivo, rabbit; conditions: entire 4-hour period
Excerpt: as §1
Each rabbit was sedated with an intramuscular injection of ketamine-xylazine ((25 mg ketamine+6 mg xylazine)/kg rabbit) and anesthesia was maintained by isoflurane. […]
Acetylcholine (Ach), a chemical that causes the bladder muscle (detrusor) to squeeze or contract, was injected through the intra-arterial polyethylene catheter in a volume of 0.31-0.39 mL (i.e., 0.1 mL/kg of rabbit), followed by 0.2 mL of heparinized saline. Change of intravesical pressure following the administration of Ach (10^−6 mol/kg) was monitored by the pressure transducer and recorded on a Grass model 7D polygraph. […]
as §6

[8] = system: bladder; test: Example 3: cystometry after vaginal or oral oxybutynin; format: in vivo, rabbit; conditions: for micturition pressure: four hours after administration
Method: (§8) 30 mature female New Zealand white rabbits (˜4 kg) were separated into five groups of six rabbits each. Intra arterial administration of Ach was used as a model for hyperreflexia. The effects on intra arterial stimulated contraction were compared with effects on micturition pressure generation.
as §2, with “Central Mutual” for “cm”
as §3, with “tranducer. The right carotid artery was cannulated for monitoring blood pressure. Bladder pressure and blood pressure were recorded on a Grass model 7D Polygraph, and were simultaneously digitized using a Polyview A/D digital analytical system.” for “transducer.”
(§9) Cystometry was performed at 1.4 mL/min until a micturition contraction or a volume of 80 mL was obtained. After the first cystometry, Ach (10^−6 mol/kg) was injected through the intra-arterial polyethylene catheter in a volume of 0.1 ml/kg followed by three washes of 0.2 ml of heparinized saline. The blood pressure and bladder pressure responses were recorded and digitized.
(§10) After three consistent Ach tests, (i.e. responses within 20% of each other) the rabbits in the control group (Group 1) received a vaginal administration of 3 mL of gel (no oxybutynin); the rabbits in the high dose group (Group 2) received a vaginal administration of 1.5 g of oxybutynin suspended in 3 mL of gel; the rabbits in the intermediate dose group (Group 3) received 0.5 g of oxybutynin suspended in 3 mL of gel; the rabbits in the low dose group (Group 4) received a vaginal administration of 0.15 g of oxybutynin suspended in 3 mL of gel; and the rabbits in the oral dose group (Group 5) received 0.5 g of an oral preparation of oxybutynin dissolved in 3 mL of saline.
(§11) Ach was administered at 10 minute intervals for two hours, and then a second cystometry was performed. Ach administration continued at 10 minute intervals for a second two hour period, and then a final cystometry performed.
(§12) Statistical significance was determined using analysis of variance followed by Bonferroni test for individual differences. A p<0.05 was required for significance.

[9] = system: bladder; test: Example 3: bladder response to intra-arterial Ach (model for hyperreflexia); format: in vivo, rabbit
Method: as §8
as §2, with “Central Mutual” for “cm”
as §3, with “tranducer. The right carotid artery was cannulated for monitoring blood pressure. Bladder pressure and blood pressure were recorded on a Grass model 7D Polygraph, and were simultaneously digitized using a Polyview A/D digital analytical system.” for “transducer.”
as §9, §10, §11, §12

[10] = system: blood pressure; test: Example 3: vascular (blood pressure) response to Ach; format: in vivo, rabbit
Method: as §8
as §2, with “Central Mutual” for “cm”
as §3, with “tranducer. The right carotid artery was cannulated for monitoring blood pressure. Bladder pressure and blood pressure were recorded on a Grass model 7D Polygraph, and were simultaneously digitized using a Polyview A/D digital analytical system.” for “transducer.”
Cystometry was performed at 1.4 mL/min until a micturition contraction or a volume of 80 mL was obtained. […] The blood pressure and bladder pressure responses were recorded and digitized. […]
Statistical significance was determined using analysis of variance followed by Bonferroni test for individual differences. […]

[11] = system: urge incontinence; conditions: cited from earlier work
[12] = solid device containing oxybutynin inserted in the vagina of a rabbit (Schröder); cited from earlier work
[13] = low dose (0.05 g/g gel) vaginal, two out of three experiments
[14] = vaginally delivered high dose, overall
[15] = 5 mg into the vagina at bed time
[16] = 5 mg into the vagina twice daily
[17] = vaginal 5 mg at bed time for 6 months
[18] = oxybutynin solution delivered by catheter (Saito)

## Cc1ccc(O)c([C@H](CCN(C(C)C)C(C)C)c2ccccc2)c1 [DETROL®, tolterodine tartrate]
[1]; 2 mg orally twice a day
  improvement of urgency incontinence: slight improvement

## CCN(CC)CC#CCOC(=O)C(O)(c1ccccc1)C1CCCCC1 (stereo not drawn) [oxybutynin]
[2]; 15 minutes after administration
  response of the bladder pressure to Ach: completely lost
[2]; 4 hours after administration
  response of the bladder pressure to Ach: did not increase
[2]; low dose (0.05 g/g gel) vaginal, one experiment
  reduction of the response of the bladder pressure to Ach: about 50%
[2]; [13]
  effect on bladder pressure response to Ach: no significant effect
[2]; [14]
  contractile response of the bladder to Ach: significantly reduced
[3]; high dose (0.5 g/g gel) vaginal, 15 minutes after administration
  response of the blood pressure to Ach: clear response
[3]; high dose (0.5 g/g gel) vaginal, 4 hours after administration
  response of the blood pressure to Ach: decreased
[3]; [13]
  effect on blood pressure response to Ach: no significant effect
[3]; [14]
  response of the blood pressure to Ach: without having any significant effects
[4]
  Bladder Compliance: significant decrease
  bladder volume at micturition: increase
[5]; high dose vaginal
  Bladder Compliance: significant decrease
  intravesical pressure during cystometry: decreased
[5]; high dose vaginal, before approximately 20 mL
  intravesical volume at micturition (no micturition reflex up to this volume; cystometry stopped): > 80 mL
[5]; high dose vaginal, up to bladder volume of 80 mL
  micturition reflex: inhibited
[5]; low dose vaginal
  Bladder Compliance: decrease
[5]; low dose vaginal, after administration (about 15 before), FIG. 4
  intravesical pressure during cystometry (at micturition): about 8 cm H2O
[5]; low dose vaginal, after administration (about 16 before), FIG. 3
  pressure at which micturition occurred: about 8 cm H2O
[5]; low dose vaginal, after administration (about 22 before)
  magnitude of the micturition reflex (micturition pressure): about 10 cm H2O
[5]; low dose vaginal, after treatment, approximately the same as before
  intravesical volume at micturition: about 22 mL
[6]; high dose vaginal, after 4 hours
  contractile response to intra-arterial Ach: not restored
[6]; high dose vaginal, at 15 minutes
  contractile response to intra-arterial Ach: complete inhibition
[6]; low dose vaginal, at 45 minutes
  contractile response to intra-arterial Ach: decreased response
[6]; low dose vaginal, from 45 minutes for the remaining 2.25 hours
  intravesical pressure response to intra-arterial Ach: about 7 cm H2O
[7]; high dose vaginal
  vascular response to Ach: no effect
[7]; low dose vaginal
  vascular response to Ach: no effect
[8]; all of the formulations (vaginal low, intermediate, high; oral)
  bladder volume at micturition: significant increase
[8]; all oxybutynin-treated groups
  Bladder Compliance: decreased
[8]; high dose vaginal
  decrease of Bladder Compliance: 7.3 fold
[8]; highest dose
  micturition reflex: virtually eliminated
[8]; intermediate dose vaginal
  decrease of Bladder Compliance: 4.5 fold
[8]; low dose vaginal
  decrease of Bladder Compliance: 3.3 fold
[8]; oral (0.5 g in 3 mL saline)
  intravesical pressure immediately prior to micturition: significantly reduced
[8]; oral preparation vs intermediate dose vaginal
  inhibitory effects on the micturition reflex, oral compared with the vaginal route: significantly greater inhibitory effects
[8]; oral preparation vs intermediate dose vaginal (equal effects on Ach stimulated contraction)
  effect on Bladder Compliance and bladder capacity, oral compared with the vaginal route: smaller effect
[8]; oral
  micturition pressure: significantly reduced
[8]; vaginal high dose (1.5 g in 3 mL gel)
  intravesical pressure immediately prior to micturition: significantly reduced
[8]; vaginal high dose
  micturition pressure: significantly reduced
[8]; vaginal intermediate dose (0.5 g in 3 mL gel)
  intravesical pressure immediately prior to micturition: significantly reduced
[8]; vaginal intermediate dose
  micturition pressure: not significantly affected
[8]; vaginal low dose (0.15 g in 3 mL gel)
  intravesical pressure immediately prior to micturition: no significant effect
[8]; vaginal low dose
  micturition pressure: not significantly affected
[9]; all preparations of oxybutynin
  response to Ach compared to the control response: statistically significant decrease
[9]; high dose vaginal
  onset of action: very fast
[9]; high dose vaginal, at 30 minutes, remained active throughout the 4 hour study
  response to Ach: completely inhibited
[9]; highest dose
  response to acetylcholine: completely eliminated
[9]; intermediate vaginal dose, reached over 90 minutes, remaining for the rest of the experiment
  response to Ach: approximately 40 % of control
[9]; low vaginal dose, reached over 90 minutes, remaining for the rest of the experiment
  response to Ach: approximately 40 % of control
[9]; oral, reached over 90 minutes, remaining for the rest of the experiment
  response to Ach: approximately 40 % of control
[10]; any dose, vaginally delivered, entire 4 hour period
  vascular response to Ach: no effect
[10]; highest dose
  effects on the cardiovascular system: only minor effects
[10]; oral
  blood pressure response to Ach: inhibitory effects
[1]; [15]
  side effects: did not experience any noticeable side effects
  urgency symptoms: improved remarkably
[1]; [16]
  improvement of symptoms: remarkable improvement
  side effects: no significant side effects
[1]; [17]
  control of symptoms of urgency incontinence: remained effective
  side effects: did not suffer from any side effects
[1]; vaginal 5 mg once daily at bed time
  improvement of urinary frequency, urgency and nocturia: significant improvement
[11]; intravesical administration (Brendler)
  side effects: no side effects were observed
[11]; intravesical administration, eleven patients with persistent urge incontinence (Brendler)
  patients who reported improvement and became totally continent: Ten out of eleven
[11]; [18]
  effectiveness in urinary incontinence: effective
  side effects: did not experience side effects
[12]
  systemic levels of oxybutynin: effective at reducing the systemic levels

## CCN(CC)CC#CCOC(=O)C(O)(c1ccccc1)C1CCCCC1 (stereo not drawn) [free base form, oxybutynin]
[6]; high dose of the free base form
  response to Ach: no effect

Reference: patent US8226972B2, “Vaginal delivery of drugs” (FemmePharma Holding Company, Inc., priority 2001, dated 2012)
